According to patent publication US10450314B2, “Pteridine derivatives as modulators of ROR gamma” (Boehringer Ingelheim International GmbH, priority 2015, dated 2019):

Columns and labels:
RORγ = target: T1, RORγ (Homo sapiens, UniProt P51449); assay: RORγ Reporter Gene Assay (RGA), luciferase transactivation in transiently transfected HEK 293 cells; assay type: cell-based; settings: HEK 293 cells cotransfected with pGL4.3 luc2P/GAL4UAS and pBIND Gal4DBD hRORC LBD; 20-24 h incubation
T1 construct: expressed in transfected cells; host or cells: HEK 293 cells, transiently cotransfected with pGL4.3 luc2P/GAL4UAS/Hygro reporter
T1 sequence (P51449 269-508 limits assumed): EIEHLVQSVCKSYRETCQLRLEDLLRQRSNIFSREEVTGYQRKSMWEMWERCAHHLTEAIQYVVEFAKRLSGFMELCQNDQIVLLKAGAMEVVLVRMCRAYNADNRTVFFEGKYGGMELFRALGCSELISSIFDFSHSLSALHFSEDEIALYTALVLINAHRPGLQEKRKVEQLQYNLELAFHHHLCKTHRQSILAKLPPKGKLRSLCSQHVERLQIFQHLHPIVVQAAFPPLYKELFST
Procedure: Reporter Gene Assay (RGA)
A nuclear receptor transactivation assay is performed to quantitate the ability of test compounds to inhibit RORγ transactivation of a luciferase reporter. A similar assay is described in: Khan et al., Bioorganic & Medicinal Chemistry Letters 23 (2013), 532-536. The system uses transiently transfected HEK 293 cells cotransfected with two plasmids (pGL4.3, luc2P/GAL4UAS/Hygro, and pBIND, Gal4DBD hRORC LBD1-3). The positive control is co-transiently transfected with both plasmids, and the negative control contains the pGL4.3 promoter sequence. Assays are assembled in 384 well plates where transiently transfected cells and test compound at varying concentrations are incubated for 20-24 h. The next day, assays plates are taken out and equilibrated at RT for 20-30 minutes. Bright-Glo™ Luciferase Assay System is used to detect Luciferase production. After addition of Bright GLO detection reagent, the plates are incubated at RT for 20 minutes. The plates are read on an Envision plate reader to measure luminescence signal. The RLU signal is converted to POC relative to control and blank wells.
Compound Dilution Buffer:
Bright Glo Luciferase Assay System: Promega #E2620
Thaw lysis buffer provided in kit, add 100 mL lysis buffer to substrate powder.

[1] = Human liver microsome (HLM) metabolic stability assay; assay type: in vitro ADME; settings: human liver microsomes, 1 uM compound, 37° C., 60 min; % hepatic blood flow
Procedure: Assessment of Metabolic Stability
The 5 time point, high-throughput human liver microsome (HLM) metabolic stability assay is designed to determine in vitro compound metabolism. Compounds are incubated with HLMs at a concentration of 1 uM, at 37° C., for a total of 60 min. The percent of compound remaining at 5, 15, 30, and 60 min is used to calculate the t1/2 (min), CLint (mL/min/kg), CLh (mL/min/kg), and % Qh. The assay is based on a 96-well format and can accommodate up to 92 compounds per plate (n=1).
Using the 96-well multi-channel head, the Biomek FX, equipped with a Peltier heating block/shaker, is programmed to accomplish the following steps: • 1. Pipette 175 uL of 1.15 mg/mL microsomes into each of the 96 conical inserts (Analytical Sales and Products, catalog number 96PL05) that fit into the plate of the Peltier heating block/shaker (the incubation plate) • 2. Add 5 uL of compounds from the assay plate to the microsomes and shake the mixture at 600 rpm at 42.1° C. for 10 min (a setting of 42.1° C. on the Peltier is required for the samples to incubate at 37° C.) • 3. After 10 min, prompt the user to add the NADPH plate to the deck and add 20 uL from the NADPH plate to the incubation plate to start the reaction • 4. Add 215 uL of 100%, cold acetonitrile containing an internal standard(s) to a 0 minute, 5 minute, 15 minute, 30 minute, and 60 minute “quench” plate • 5. At 0 min, 5 min, 15 min, 30 min, and 60 min into the incubation, aspirate 12 uL from the incubation mixture and add it to the quench solution to stop the reaction • 6. Add 185 uL HPLC grade water to each well of the 0, 5, 15, 30 and 60 minute quench plates to dilute compounds to the appropriate concentration for the mass spectrometer
After all time points are collected, the quench plates are sealed with 96-well pierceable plate mats or heat sealing foil and centrifuged at 3000 rpm for 15 min to pellet the microsomes.
The plates are analyzed using LC/MS/MS with electron spray ionization (ESI) and the previously determined MRM transitions. The LC method includes the following parameters:
Using an Excel template in Activitybase, the peak areas corresponding to 5, 15, 30 and 60 min are compared to the peak area at 0 min to calculate the percent of remaining compound using the following equation:
Percent compound remaining=(AUC at Time t min/AUC at Time 0 min)×100 where t=0, 5, 15, 30 or 60 min.
Time (min) is plotted against the natural logarithm (Ln) of the percent compound remaining to determine the slope. The slope is used to calculate t1/2 (min) using the equation, t1/2=0.693/slope.
Clint, Intrinsic Clearance

IC50 (RORγ) [nM]	HLM (% Qh) [1] [% Qh]	Compound
265	<24	Cc1ncnc(C2CC2)c1-c1nc(C)c2nc(NCc3ccc(S(C)(=N)=O)cc3)c(=O)n([C@@H](C)C3CC3)c2n1 (single isomer, unassigned) [Example 27b]
255	<24	Cc1ncnc(C2CC2)c1-c1nc(C)c2nc(NCc3ccc(S(C)(=N)=O)cc3)c(=O)n([C@@H](C)C(F)(F)F)c2n1 (single isomer, unassigned) [Example 91b]
1300	<24	Cc1ncnc(C2CC2)c1-c1nc(C)c2nc(NCc3ccc(S(C)(=N)=O)cn3)c(=O)n([C@@H](C)C(F)(F)F)c2n1 (single isomer, unassigned) [Example 106a]
640	<24	CCS(=N)(=O)c1ccc(CNc2nc3c(C)nc(-c4c(C)ncnc4C4CC4)nc3n([C@@H](C)C(F)(F)F)c2=O)nc1 (single isomer, unassigned) [Example 102b]
210	<24	Cc1ncnc(C2CC2)c1-c1nc(C)c2nc(NCc3ccc(S(C)(=N)=O)cc3)c(=O)n([C@@H](C)C3CC3)c2n1 (single isomer, unassigned) [Example 27a]
365	<24	CCS(=N)(=O)c1ccc(CNc2nc3c(C)nc(-c4c(OC)ncnc4C4CC4)nc3n([C@@H](C)C(F)(F)F)c2=O)nc1 (single isomer, unassigned) [Example 101a]
210	25	CCS(=N)(=O)c1ccc(CNc2nc3c(C)nc(-c4c(C)ncnc4C4CC4)nc3n([C@@H](C)C(F)(F)F)c2=O)cc1 (single isomer, unassigned) [Example 34a]
245	<24	CCS(=N)(=O)c1ccc(CNc2nc3c(C)nc(-c4c(C)ncnc4C4CC4)nc3n([C@@H](C)C3CC3)c2=O)cc1 (single isomer, unassigned) [Example 36b]
170	<24	CCS(=N)(=O)c1ccc(CNc2nc3c(C)nc(-c4c(C)ncnc4C4CC4)nc3n([C@@H](C)C(F)(F)F)c2=O)cc1 (single isomer, unassigned) [Example 34b]

Second part, the molecule before the results:

Compound	IC50 (RORγ) [nM]	HLM (% Qh) [1] [% Qh]
COc1ncnc(C2CC2)c1-c1nc(C)c2nc(NCc3ccc(S(C)(=O)=O)nc3)c(=O)n([C@@H](C)C3CC3)c2n1 [Example 8]	75	<24
COc1ncnc(C2CC2)c1-c1nc(C)c2nc(NCc3ccc(S(C)(=O)=O)nc3)c(=O)n([C@@H](C)C(F)(F)F)c2n1 [Example 19]	165	62
CC[C@H](C)n1c(=O)c(NCc2ccc(S(C)(=O)=O)cn2)nc2c(C)nc(-c3c(OC)ncnc3C3CC3)nc21 [Example 13]	99	<24
COc1ncnc(C2CC2)c1-c1nc(C)c2nc(NCc3ccc(S(N)(=O)=O)cn3)c(=O)n([C@@H](C)C(F)(F)F)c2n1 [Example 95]	150	40
COc1ncnc(C2CC2)c1-c1nc(C)c2nc(NCc3ccc(S(N)(=O)=O)nc3)c(=O)n([C@@H](C)C(F)(F)F)c2n1 [Example 97]	320	46
CC[C@@H](C)n1c(=O)c(NCc2ccc(S(=O)(=O)CC)nc2)nc2c(C)nc(-c3c(OC)ncnc3C3CC3)nc21 [Example 3]	88	<24
COc1ncnc(C2CC2)c1-c1nc(C)c2nc(NCc3ccc(S(C)(=O)=O)cn3)c(=O)n([C@@H](C)C(F)(F)F)c2n1 [Example 17]	130	39
CC[C@@H](C)n1c(=O)c(NCc2ccc(S(=O)(=O)CC)cn2)nc2c(OC)nc(-c3c(C)ncnc3C3CC3)nc21 [Example 21]	1900	<24
CC[C@@H](C)n1c(=O)c(NCc2ccc(S(=O)(=O)CC)cn2)nc2c(CO)nc(-c3c(C)ncnc3C3CC3)nc21 [Example 51]	230	<24
CC[C@H](C)n1c(=O)c(NCc2ccc(S(C)(=O)=O)nc2)nc2c(C)nc(-c3c(OC)ncnc3C3CC3)nc21 [Example 11]	135	26
COc1ncnc(C2CC2)c1-c1nc(C)c2nc(NCc3ccc(S(N)(=O)=O)cn3)c(=O)n(CC(C)C)c2n1 [Example 70]	1300	<24
CCS(=O)(=O)c1ccc(CNc2nc3c(C)nc(-c4c(OC)ncnc4C4CC4)nc3n([C@@H](C)C(F)(F)F)c2=O)nc1 [Example 88]	102	38
CCS(=O)(=O)c1ccc(CNc2nc3c(C)nc(-c4c(C)ncnc4C4CC4)nc3n([C@@H](C)C(F)(F)F)c2=O)cn1 [Example 82]	225	<24
COc1ncnc(C2CC2)c1-c1nc(C)c2nc(NCc3ccc(S(N)(=O)=O)cn3)c(=O)n([C@@H](C)C3CC3)c2n1 [Example 62]	125	27
CC[C@H](C)n1c(=O)c(NCc2ccc(S(N)(=O)=O)cn2)nc2c(C)nc(-c3c(OC)ncnc3C3CC3)nc21 [Example 81]	185	<24
COc1ncnc(C2CC2)c1-c1nc(C)c2nc(NCc3ccc(S(C)(=O)=O)cn3)c(=O)n([C@@H](C)C3CC3)c2n1 [Example 5]	73	28
CC[C@H](C)n1c(=O)c(NCc2ncc(S(=O)(=O)CC)cn2)nc2c(C)nc(-c3c(OC)ncnc3C3CC3)nc21 [Example 15]	150	<24
CC[C@@H](C)n1c(=O)c(NCc2ccc(S(=O)(=O)CC)cn2)nc2c(C)nc(-c3c(OC)ncnc3C3CC3)nc21 [Example 86]	73	<24
CC[C@@H](C)n1c(=O)c(NCc2ccc(S(C)(=O)=O)nc2)nc2c(C)nc(-c3c(C)ncnc3C3CC3)nc21 [Example 72]	205	<24
CCS(=O)(=O)c1cnc(CNc2nc3c(C)nc(-c4c(C)ncnc4C4CC4)nc3n([C@@H](C)C3CC3)c2=O)nc1 [Example 6]	87	<24
CCS(=O)(=O)c1cnc(CNc2nc3c(C)nc(-c4c(C)ncnc4C4CC4)nc3n(C(C)C(F)F)c2=O)nc1 (centres unmarked) [Example 89]	225	<24
CC[C@H](C)n1c(=O)c(NCc2ccc(S(C)(=O)=O)nc2)nc2c(C)nc(-c3c(C)ncnc3C3CC3)nc21 [Example 12]	140	<24
CCS(=O)(=O)c1ccc(CNc2nc3c(C)nc(-c4c(C)ncnc4C4CC4)nc3n([C@@H](C)CF)c2=O)cn1 [Example 50]	2700	<24
Cc1ncnc(C2CC2)c1-c1nc(C)c2nc(NCc3ccc(S(C)(=O)=O)cn3)c(=O)n([C@@H](C)C(F)(F)F)c2n1 [Example 18]	175	55
CC[C@@H](C)n1c(=O)c(NCC2CCN(S(C)(=O)=O)CC2)nc2c(C)nc(-c3c(C)ncnc3C3CC3)nc21 [Example 59]	98	78
